Data from paper PMC11191602, “A novel and selective fluorescent ligand for the study of adenosine A2B receptors” (Pharmacology Research & Perspectives, 2024).
Read-outs that look alike come from different tables or passages of the source.

Columns and labels:
NLuc‐A2BR = target: T1, NLuc‐A2BR (Homo sapiens, UniProt P29275); experiment: NanoBRET ligand‐binding kinetics of 200 nM PSB603‐BY630 in HEK293G cells expressing NLuc‐A2BR
T1 construct: expressed in transfected cells
T1 sequence (P29275 1-332): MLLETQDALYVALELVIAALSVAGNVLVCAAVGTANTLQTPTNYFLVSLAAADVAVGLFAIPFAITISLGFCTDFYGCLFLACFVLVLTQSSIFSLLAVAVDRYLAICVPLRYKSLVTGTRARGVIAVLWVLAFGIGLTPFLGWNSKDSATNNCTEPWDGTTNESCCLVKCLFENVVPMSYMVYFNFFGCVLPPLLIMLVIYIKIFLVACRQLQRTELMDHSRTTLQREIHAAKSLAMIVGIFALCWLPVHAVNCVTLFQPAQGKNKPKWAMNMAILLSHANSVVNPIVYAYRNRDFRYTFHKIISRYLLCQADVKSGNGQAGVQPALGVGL
Description: Saturation and competition binding assays were performed as previously described.[36] Briefly, cells were seeded in 96‐well white clear‐bottomed Greiner plates pre‐treated with 10 μg/mL poly‐D‐lysine (Sigma‐Aldrich, Missouri USA) at a density of 30 000–35 000 cells per well in DMEM supplemented with 10% FBS. The following day medium was removed and cells were incubated with PSB603‐BY630 in the presence or absence of 1 μM MRS1706 (saturation binding assays) or competing ligand in the presence of 50 nM PSB603‐BY630 (competition binding assays) in HEPES buffered saline solution (HBSS; 145 mM NaCl, 5 mM KCl, 1.3 mM CaCl2, 1 mM MgSO4, 10 mM HEPES, 2 mM sodium pyruvate, 1.5 mM NaHCO3, 10 mM D‐glucose, pH 7.45) with 0.1% bovine serum albumin for 1 h at 37°C. The NanoLuc substrate, furimazine (Promega Corporation, Wisconsin, USA), was then added to each well (1:400 dilution) and the plate was incubated for 10 min in the dark at 37°C. The resulting bioluminescence resonance energy transfer (BRET) was measured using a PHERAstar FS plate reader (BMG Labtech) at 37°C. For each well, filtered light emissions at 460 nm (80 nm bandpass) and >610 nm (longpass) for the BODIPY630/650 ligand were simultaneously measured. BRET ratios were calculated by dividing the 610 nm emission by the 460 nm emission. All conditions were performed in 2–6 replicates within each plate. For kinetic experiments, cells were preincubated for 10 min with 1:400 dilution of furimazine prior to addition of 200 nM PSB603‐BY630 and BRET ratios determined every 0.5 min. At 60 min, 10 μM MRS‐1706 was added and the ligand‐binding kinetics followed for a further 60 min.
For kinetic binding experiments, the BRET ratio obtained in the absence of fluorescent ligand was determined for each time point and subtracted from the total binding to obtain baseline‐corrected values for total binding at each time point. 60 min after addition of 200 nM PSB603‐BY630, 10 μM MRS‐1706 was added and the dissociation data fitted to the following equation to obtain values for the dissociation rate constant (k off) in min^−1: Y=Yo−NS.e^−koff.t+NS where [Yo] is the binding at time 60 min (when 10 μM MRS‐1706 was added), NS is the non‐specific binding at infinite time, k off is dissociation rate constant. The residence time in min was then calculated as the reciprocal of k off.

human NLuc‐A2AR = target: T2, human NLuc‐A2AR (Homo sapiens, UniProt P29274); experiment: NanoBRET saturation binding in HEK293G cells transiently transfected with NLuc‐A2AR; conditions: non‐specific defined with 1 μM SCH58261; PSB603‐BY630 at concentrations up to 500 nM
T2 construct: expressed in transfected cells; host or cells: HEK293G, transient transfection with pcDNA3.1 NLuc-A2AR (FuGENE HD)
Description: The human A2A receptor cDNA was obtained from Missouri S&T cDNA Resource Centre (www.cdna.org) in a pcDNA3.1 expression vector. An N‐terminal nanoluciferase (NLuc)‐labeled human A2AR receptor constructs (NLuc‐A2AR) was then generated in frame with the full length NLuc incorporating a rat 5‐HT3A membrane localisation signal sequence in pcDNA3.1 as described previously.[37] For transient transfections, HEK293G cells were seeded at 20000 cells/well into white walled, clear bottomed 96‐wells plates (Greiner Bio‐One, Stonehouse, UK), coated with 10 μg/mL poly‐D‐lysine, in 100 μL medium/well and incubated at 37°C and 5% CO2 for 18–24 h. […]
Saturation and competition binding assays were performed as previously described.[36] […] The resulting bioluminescence resonance energy transfer (BRET) was measured using a PHERAstar FS plate reader (BMG Labtech) at 37°C. For each well, filtered light emissions at 460 nm (80 nm bandpass) and >610 nm (longpass) for the BODIPY630/650 ligand were simultaneously measured. BRET ratios were calculated by dividing the 610 nm emission by the 460 nm emission. […] For kinetic experiments, cells were preincubated for 10 min with 1:400 dilution of furimazine prior to addition of 200 nM PSB603‐BY630 and BRET ratios determined every 0.5 min. […]

T2 sequence (P29274 whole entry): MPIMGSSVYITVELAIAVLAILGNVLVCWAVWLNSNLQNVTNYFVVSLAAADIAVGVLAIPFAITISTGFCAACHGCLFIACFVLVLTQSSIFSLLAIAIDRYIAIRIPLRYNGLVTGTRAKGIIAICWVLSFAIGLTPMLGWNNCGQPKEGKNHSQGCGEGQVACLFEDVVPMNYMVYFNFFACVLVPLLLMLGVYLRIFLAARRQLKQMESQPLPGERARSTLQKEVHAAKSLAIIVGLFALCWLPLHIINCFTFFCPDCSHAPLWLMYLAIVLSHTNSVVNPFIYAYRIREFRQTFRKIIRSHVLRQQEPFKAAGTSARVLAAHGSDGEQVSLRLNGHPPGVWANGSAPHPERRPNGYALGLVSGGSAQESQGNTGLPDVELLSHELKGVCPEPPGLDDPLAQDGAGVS

koff (NLuc‐A2BR; 200 nM PSB603‐BY630, 10 μM MRS‐1706 at 60 min, single representative experiment (Figure 5), read-out: K off in representative experiment (converted)): 0.000933 s⁻¹
time to reach binding equilibrium (NLuc‐A2BR; 200 nM PSB603‐BY630, 37°C): ≤ 60 min
koff (NLuc‐A2BR; 200 nM PSB603‐BY630, dissociation initiated with 10 μM MRS‐1706 at 60 min, 37°C, 5 experiments, read-out: dissociation rate constant k off (mean) (converted)): 0.00108 s⁻¹
residence time (NLuc‐A2BR; reciprocal of k off, 37°C): 15.4 min
specific binding to NLuc‐A2AR (human NLuc‐A2AR): negligible
SMILES: CCCn1c(=O)[nH]c2[nH]c(-c3ccc(S(=O)(=O)N4CCN(c5ccc(OCCNC(=O)CCCCCNC(=O)COc6ccc(/C=C/C7=[N+]8C(=Cc9ccc(-c%10cccs%10)n9[B-]8(F)F)C=C7)cc6)cc5)CC4)cc3)nc2c1=O [PSB603‐BY630]
